Measured values as given in the supplement of paper PMC4862054.

What was measured:
Details in all cases: incubation time: 72 h
HDQ-P1 [1] = test: normalised response (% of control), CellTiter-Glo; higher = more viable cells (100 = DMSO, 0 = benzethonium chloride kill control)
Description: (§1)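 DSRT, 72 h incubation, CellTox Green / CellTiter-Glo readout. Signal is normalised to DMSO and benzethonium chloride controls. Value is the normalised response at dose 3.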

HCC1143 [2] = test: as above
Description: as §1

CAL-120 [3] = test: as above
Description: as §1

BT-549 [4] = test: as above
Description: as §1

MCF-10A [5] = test: as above
Description: as §1

Hs578T [6] = test: as above
Description: as §1

MDA-MB-436 [7] = test: as above
Description: as §1

MDA-MB-453 [8] = test: as above
Description: as §1

BT-474 [9] = test: as above
Description: as §1

CAL-51 [10] = test: as above
Description: as §1

CAL-85-1 [11] = test: as above
Description: as §1

CAL-148 [12] = test: as above
Description: as §1

MFM-223 [13] = test: as above
Description: as §1

MDA-MB-231 [14] = test: as above
Description: as §1

DU-4475 [15] = test: as above
Description: as §1

SK-BR-3 = test: as above
Description: as §1

HCC1599 [16] = test: as above
Description: as §1

HCC1937 [17] = test: as above
Description: as §1

MDA-MB-468 [18] = test: as above
Description: as §1

HDQ-P1 [19] = test: normalised response (% of control), CellTox Green; higher = less cell death (100 = DMSO, 0 = benzethonium chloride kill control)
Procedure, shortened: (§2)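 In 384-well plates holding compound at 5 concentrations in 10-fold steps over a 10,000-fold range specific to each compound, breast cancer cell lines were seeded as 20 µl suspension and incubated 72 h. CellTox Green fluorescence was measured at 485/520 nm, after which CellTiter-Glo luminescence was measured following 10 min at room temperature. Plate signals were normalised to 0.1 % DMSO (100) and a positive kill control (0), and each value is the normalised signal at a single concentration.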

HCC1143 [20] = test: as above
Procedure, shortened: as §2

CAL-120 [21] = test: as above
Procedure, shortened: as §2

BT-549 [22] = test: as above
Procedure, shortened: as §2

MCF-10A [23] = test: as above
Procedure, shortened: as §2

Hs578T [24] = test: as above
Procedure, shortened: as §2

MDA-MB-436 [25] = test: as above
Procedure, shortened: as §2

MDA-MB-453 [26] = test: as above
Procedure, shortened: as §2

BT-474 [27] = test: as above
Procedure, shortened: as §2

CAL-51 [28] = test: as above
Procedure, shortened: as §2

CAL-85-1 [29] = test: as above
Procedure, shortened: as §2

CAL-148 [30] = test: as above
Procedure, shortened: as §2

MFM-223 [31] = test: as above
Procedure, shortened: as §2

MDA-MB-231 [32] = test: as above
Procedure, shortened: as §2

DU-4475 [33] = test: as above
Procedure, shortened: as §2

HCC1599 [34] = test: as above
Procedure, shortened: as §2

HCC1937 [35] = test: as above
Procedure, shortened: as §2

MDA-MB-468 [36] = test: as above
Procedure, shortened: as §2

| SMILES | normalised response (HDQ-P1 [1]) [%] | normalised response (HCC1143 [2]) [%] | normalised response (CAL-120 [3]) [%] | normalised response (BT-549 [4]) [%] | normalised response (MCF-10A [5]) [%] | normalised response (Hs578T [6]) [%] | normalised response (MDA-MB-436 [7]) [%] | normalised response (MDA-MB-453 [8]) [%] | normalised response (BT-474 [9]) [%] | normalised response (CAL-51 [10]) [%] | normalised response (CAL-85-1 [11]) [%] | normalised response (CAL-148 [12]) [%] | normalised response (MFM-223 [13]) [%] | normalised response (MDA-MB-231 [14]) [%] | normalised response (DU-4475 [15]) [%] | normalised response (SK-BR-3) [%] | normalised response (HCC1599 [16]) [%] | normalised response (HCC1937 [17]) [%] | normalised response (MDA-MB-468 [18]) [%] | normalised response (HDQ-P1 [19]) [%] | normalised response (HCC1143 [20]) [%] | normalised response (CAL-120 [21]) [%] | normalised response (BT-549 [22]) [%] | normalised response (MCF-10A [23]) [%] | normalised response (Hs578T [24]) [%] | normalised response (MDA-MB-436 [25]) [%] | normalised response (MDA-MB-453 [26]) [%] | normalised response (BT-474 [27]) [%] | normalised response (CAL-51 [28]) [%] | normalised response (CAL-85-1 [29]) [%] | normalised response (CAL-148 [30]) [%] | normalised response (MFM-223 [31]) [%] | normalised response (MDA-MB-231 [32]) [%] | normalised response (DU-4475 [33]) [%] | normalised response (HCC1599 [34]) [%] | normalised response (HCC1937 [35]) [%] | normalised response (MDA-MB-468 [36]) [%] |
| --- | --- | --- | --- | --- | --- | --- | --- | --- | --- | --- | --- | --- | --- | --- | --- | --- | --- | --- | --- | --- | --- | --- | --- | --- | --- | --- | --- | --- | --- | --- | --- | --- | --- | --- | --- | --- | --- |
| CN1CCN(c2ccc3nc(-c4c(N)c5c(F)cccc5[nH]c4=O)[nH]c3c2)CC1 [Dovitinib] (100 nM) | 97.3 | 103 | 93.9 | 103 | 99.1 | 101 | 96.5 | 100 | 104 | 107 | 94.7 | 99.7 | 100 | 92.4 | 97.1 | 94.7 | 94.2 | 94.8 | 97.3 | 115 | 97.1 | 96 | 95.3 | 102 | 93.3 | 72.4 | 101 | 96.5 | 107 | 90.3 | 85.1 | 105 | 89.5 | 100 | 108 | 89.1 | 87.8 |
| Cn1cnc2c(F)c(Nc3ccc(Br)cc3F)c(C(=O)NOCCO)cc21 [MEK-162] (10 nM) | 88.9 | 94.8 | 97.9 | 94.5 | 70.8 | 90.5 | 103 | 105 | 103 | 114 | 95.2 | 101 | 99.4 | 99.3 | 92.9 | 101 | 93.8 | 90.8 | 93 | 102 | 73 | 97.6 | 82.7 | 68.5 | 108 | 99.8 | 104 | 90.8 | 112 | 99.8 | 103 | 102 | 81.9 | 97.6 | 93 | 78.5 | 125 |
| O=c1[nH]cc(F)c(=O)[nH]1 [Fluorouracil] (100 nM) | 102 | 109 | 107 | 109 | 113 | 105 | 105 | 116 | 103 | 105 | 98.3 | 111 | 104 | 111 | 102 | 104 | 116 | 95.6 | 98 | 105 | 92.6 | 100 | 96.8 | 114 | 101 | 51.5 | 106 | 93 | 113 | 114 | 102 | 106 | 111 | 106 | 103 | 103 | 99.4 |
| CS(=O)(=O)OCCCCOS(C)(=O)=O [Busulfan] (1000 nM) | 103 | 105 | 102 | 109 | 108 | 108 | 94.2 | 111 | 98.9 | 90.4 | 104 | 107 | 106 | 105 | 108 | 110 | 98.9 | 96.2 | 97.2 | 83.3 | 97.8 | 97.8 | 96.5 | 59.8 | 105 | 90.6 | 103 | 100 | 109 | 101 | 96.1 | 102 | 104 | 101 | 103 | 107 | 121 |
